{"source": "ChEMBL document CHEMBL1201862", "about": "“PubChem BioAssay data set” (2004)", "assay_in_all_cases": "inhibition of tumour cell growth, NCI panel, 48 h", "key": {"[1]": {"test_system": "UO-31"}, "[2]": {"test_system": "A498"}, "[3]": {"test_system": "NCI-H522"}, "[4]": {"test_system": "NCI-H226"}, "[5]": {"test_system": "EKVX"}, "[6]": {"test_system": "OVCAR-8"}, "[7]": {"test_system": "HT-29"}, "[8]": {"test_system": "HCT-15"}, "[9]": {"test_system": "HCT-116"}, "[10]": {"test_system": "OVCAR-5"}, "[11]": {"test_system": "SK-OV-3"}, "[12]": {"test_system": "M14"}, "[13]": {"test_system": "ACHN"}, "[14]": {"test_system": "UACC-257"}, "[15]": {"test_system": "U-251"}, "[16]": {"test_system": "MCF7"}, "[17]": {"test_system": "HL-60"}, "[18]": {"test_system": "MDA-MB-435"}, "[19]": {"test_system": "Malme-3M"}}, "note": "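Assay format: 96-well plates, 48-hour exposure. The concentration for 50% growth inhibition is given as GI50.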 Activity calls are given as the source filed them. Cut-off read from the data, not from the text of the source: active = GI50 up to about 1.1 µM and inactive = higher."}
{"smiles": "COCc1cc2c(cc1/C=C/[N+](=O)[O-])OCO2", "values": [{"measurement": "GI50", "setting": "[1]", "result": "17 µM (inactive)"}, {"measurement": "GI50", "setting": "[2]", "result": "17 µM (inactive)"}, {"measurement": "GI50", "setting": "[3]", "result": "19.2 µM (inactive)"}, {"measurement": "GI50", "setting": "[4]", "result": "19.8 µM (inactive)"}, {"measurement": "GI50", "setting": "[5]", "result": "17.8 µM (inactive)"}, {"measurement": "GI50", "setting": "[6]", "result": "23 µM (inactive)"}, {"measurement": "GI50", "setting": "[7]", "result": "18.5 µM (inactive)"}, {"measurement": "GI50", "setting": "[8]", "result": 19.7, "unit": "µM"}, {"measurement": "GI50", "setting": "[9]", "result": "17.9 µM (inactive)"}, {"measurement": "GI50", "setting": "[10]", "result": "16.4 µM (inactive)"}, {"measurement": "GI50", "setting": "[11]", "result": "17.9 µM (inactive)"}, {"measurement": "GI50", "setting": "[12]", "result": "16.7 µM (inactive)"}, {"measurement": "GI50", "setting": "[13]", "result": "17.1 µM (inactive)"}, {"measurement": "GI50", "setting": "[14]", "result": "16.8 µM (inactive)"}, {"measurement": "GI50", "setting": "[15]", "result": "17.7 µM (inactive)"}, {"measurement": "GI50", "setting": "[16]", "result": "29.7 µM (inactive)"}, {"measurement": "GI50", "setting": "[17]", "result": "23.4 µM (inactive)"}, {"measurement": "GI50", "setting": "[18]", "result": "18.3 µM (inactive)"}]}
{"smiles": "Cc1cc(C23OC4COC(C)(C)OC4C2OC(C)(C)O3)nc2ccccc12", "note": "(stereo not given)", "values": [{"measurement": "GI50", "setting": "[1]", "result": "> 100 µM (inactive)"}, {"measurement": "GI50", "setting": "[3]", "result": "> 100 µM (inactive)"}, {"measurement": "GI50", "setting": "[4]", "result": "> 100 µM (inactive)"}, {"measurement": "GI50", "setting": "[5]", "result": "> 100 µM (inactive)"}, {"measurement": "GI50", "setting": "[6]", "result": "> 100 µM (inactive)"}, {"measurement": "GI50", "setting": "[7]", "result": "76.6 µM (inactive)"}, {"measurement": "GI50", "setting": "[8]", "result": "> 100", "unit": "µM"}, {"measurement": "GI50", "setting": "[9]", "result": "> 100 µM (inactive)"}, {"measurement": "GI50", "setting": "[10]", "result": "> 100 µM (inactive)"}, {"measurement": "GI50", "setting": "[11]", "result": "> 100 µM (inactive)"}, {"measurement": "GI50", "setting": "[12]", "result": "> 100 µM (inactive)"}, {"measurement": "GI50", "setting": "[13]", "result": "> 100 µM (inactive)"}, {"measurement": "GI50", "setting": "[14]", "result": "> 100 µM (inactive)"}, {"measurement": "GI50", "setting": "[15]", "result": "> 100 µM (inactive)"}, {"measurement": "GI50", "setting": "[16]", "result": "> 100 µM (inactive)"}, {"measurement": "GI50", "setting": "[17]", "result": "33.4 µM (inactive)"}, {"measurement": "GI50", "setting": "[19]", "result": "> 100 µM (inactive)"}, {"measurement": "GI50", "setting": "[18]", "result": "> 100 µM (inactive)"}]}
{"smiles": "S=C1OC2C3C4CC5C3C(O1)C1C5C4C21", "note": "(stereo not given)", "values": [{"measurement": "GI50", "setting": "[1]", "result": "> 100 µM (inactive)"}, {"measurement": "GI50", "setting": "[2]", "result": "> 100 µM (inactive)"}, {"measurement": "GI50", "setting": "[3]", "result": "> 100 µM (inactive)"}, {"measurement": "GI50", "setting": "[4]", "result": "> 100 µM (inactive)"}, {"measurement": "GI50", "setting": "[5]", "result": "> 100 µM (inactive)"}, {"measurement": "GI50", "setting": "[6]", "result": "> 100 µM (inactive)"}, {"measurement": "GI50", "setting": "[7]", "result": "> 100 µM (inactive)"}, {"measurement": "GI50", "setting": "[8]", "result": "> 100", "unit": "µM"}, {"measurement": "GI50", "setting": "[9]", "result": "45.2 µM (inactive)"}, {"measurement": "GI50", "setting": "[10]", "result": "> 100 µM (inactive)"}, {"measurement": "GI50", "setting": "[11]", "result": "> 100 µM (inactive)"}, {"measurement": "GI50", "setting": "[12]", "result": "> 100 µM (inactive)"}, {"measurement": "GI50", "setting": "[13]", "result": "> 100 µM (inactive)"}, {"measurement": "GI50", "setting": "[14]", "result": "> 100 µM (inactive)"}, {"measurement": "GI50", "setting": "[15]", "result": "> 100 µM (inactive)"}, {"measurement": "GI50", "setting": "[17]", "result": "> 100 µM (inactive)"}, {"measurement": "GI50", "setting": "[19]", "result": "> 100 µM (inactive)"}]}
{"smiles": "CC(=O)CCC(=O)CC(O)(C(F)(F)F)C(F)(F)F", "values": [{"measurement": "GI50", "setting": "[1]", "result": "14.5 µM (inactive)"}, {"measurement": "GI50", "setting": "[2]", "result": "5.01 µM (inactive)"}, {"measurement": "GI50", "setting": "[4]", "result": "11.6 µM (inactive)"}, {"measurement": "GI50", "setting": "[5]", "result": "> 10 µM (inactive)"}, {"measurement": "GI50", "setting": "[6]", "result": "19.6 µM (inactive)"}, {"measurement": "GI50", "setting": "[7]", "result": "17.8 µM (inactive)"}, {"measurement": "GI50", "setting": "[8]", "result": 20.1, "unit": "µM"}, {"measurement": "GI50", "setting": "[9]", "result": "16.9 µM (inactive)"}, {"measurement": "GI50", "setting": "[10]", "result": "12.9 µM (inactive)"}, {"measurement": "GI50", "setting": "[11]", "result": "> 10 µM (inactive)"}, {"measurement": "GI50", "setting": "[12]", "result": "19.9 µM (inactive)"}, {"measurement": "GI50", "setting": "[13]", "result": "24.8 µM (inactive)"}, {"measurement": "GI50", "setting": "[14]", "result": "17.8 µM (inactive)"}, {"measurement": "GI50", "setting": "[15]", "result": "17.2 µM (inactive)"}, {"measurement": "GI50", "setting": "[16]", "result": "18.8 µM (inactive)"}, {"measurement": "GI50", "setting": "[17]", "result": "18.5 µM (inactive)"}, {"measurement": "GI50", "setting": "[19]", "result": "16.7 µM (inactive)"}, {"measurement": "GI50", "setting": "[18]", "result": "19.4 µM (inactive)"}]}
{"smiles": "CCn1c(CSc2nc(-c3ccccc3)c(-c3ccccc3)[nH]2)n[nH]c1=S", "values": [{"measurement": "GI50", "setting": "[1]", "result": "> 100 µM (inactive)"}, {"measurement": "GI50", "setting": "[2]", "result": "> 100 µM (inactive)"}, {"measurement": "GI50", "setting": "[3]", "result": "> 100 µM (inactive)"}, {"measurement": "GI50", "setting": "[4]", "result": "> 100 µM (inactive)"}, {"measurement": "GI50", "setting": "[5]", "result": "> 100 µM (inactive)"}, {"measurement": "GI50", "setting": "[6]", "result": "> 100 µM (inactive)"}, {"measurement": "GI50", "setting": "[7]", "result": "> 100 µM (inactive)"}, {"measurement": "GI50", "setting": "[8]", "result": "> 100", "unit": "µM"}, {"measurement": "GI50", "setting": "[9]", "result": "> 100 µM (inactive)"}, {"measurement": "GI50", "setting": "[10]", "result": "> 100 µM (inactive)"}, {"measurement": "GI50", "setting": "[11]", "result": "> 100 µM (inactive)"}, {"measurement": "GI50", "setting": "[12]", "result": "> 100 µM (inactive)"}, {"measurement": "GI50", "setting": "[13]", "result": "> 100 µM (inactive)"}, {"measurement": "GI50", "setting": "[14]", "result": "> 100 µM (inactive)"}, {"measurement": "GI50", "setting": "[15]", "result": "> 100 µM (inactive)"}, {"measurement": "GI50", "setting": "[17]", "result": "> 100 µM (inactive)"}, {"measurement": "GI50", "setting": "[19]", "result": "> 100 µM (inactive)"}]}
{"smiles": "N#Cc1c(-c2ccco2)cc(-c2ccc(N)cc2)[nH]c1=O", "values": [{"measurement": "GI50", "setting": "[1]", "result": "> 100 µM (inactive)"}, {"measurement": "GI50", "setting": "[2]", "result": "> 100 µM (inactive)"}, {"measurement": "GI50", "setting": "[3]", "result": "> 100 µM (inactive)"}, {"measurement": "GI50", "setting": "[4]", "result": "> 100 µM (inactive)"}, {"measurement": "GI50", "setting": "[5]", "result": "> 100 µM (inactive)"}, {"measurement": "GI50", "setting": "[6]", "result": "> 100 µM (inactive)"}, {"measurement": "GI50", "setting": "[7]", "result": "> 100 µM (inactive)"}, {"measurement": "GI50", "setting": "[8]", "result": "> 100", "unit": "µM"}, {"measurement": "GI50", "setting": "[9]", "result": "> 100 µM (inactive)"}, {"measurement": "GI50", "setting": "[10]", "result": "> 100 µM (inactive)"}, {"measurement": "GI50", "setting": "[11]", "result": "> 100 µM (inactive)"}, {"measurement": "GI50", "setting": "[12]", "result": "> 100 µM (inactive)"}, {"measurement": "GI50", "setting": "[13]", "result": "> 100 µM (inactive)"}, {"measurement": "GI50", "setting": "[14]", "result": "> 100 µM (inactive)"}, {"measurement": "GI50", "setting": "[15]", "result": "> 100 µM (inactive)"}, {"measurement": "GI50", "setting": "[17]", "result": "> 100 µM (inactive)"}, {"measurement": "GI50", "setting": "[19]", "result": "> 100 µM (inactive)"}]}
